# Laboratory results from patent publication US7728012B2, “Carboxamide compounds and their use as calpain inhibitors” (Abbott GmbH & Co. KG, priority 2006, dated 2010).
# Experiments:
# Format in all cases: biochemical
# [1] = molecular target: T1, cathepsin L isolated from human liver (Homo sapiens, UniProt P07711); test: Cathepsin L kinetic fluorescence enzyme inhibition assay; settings: selectivity ratio versus calpain I
# T1 construct: cathepsin L—isolated from human liver; purchased Calbiochem 219402; host or cells: human liver (tissue isolate)
# T1 sequence (P07711 114-333): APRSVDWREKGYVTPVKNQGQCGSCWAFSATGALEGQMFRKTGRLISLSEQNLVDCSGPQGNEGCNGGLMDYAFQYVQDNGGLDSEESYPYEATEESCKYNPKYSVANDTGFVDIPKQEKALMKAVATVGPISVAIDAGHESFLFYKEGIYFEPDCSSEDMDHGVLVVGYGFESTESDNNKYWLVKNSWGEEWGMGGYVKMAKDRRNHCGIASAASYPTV
# Protocol: (§1) The following solutions and buffers were employed: • HBS (for 40 ml): 800 μl M HEPES; 2.16 ml 100 mM KCl; 4.8 ml 1M NaCl; 3.59 ml 5% glucose; 60 μl μM MgSO4; 400 μl 100 mM Na pyruvate, 28.19 ml water; pH 7.2-7.5. • lysis buffer (for 20 ml): 400 μl M Tris pH 8.2; 2.74 ml 1M NaCl; 520 μl 0.5M EDTA; 2 ml 10% triton X-100; 0.8 ml (=1:25) CompletePlus (1 tablet/2 ml H2O); 200 μl 100 mM Pefabloc; 13.34 ml water, pH 8.2. • TBST (10×) (for 1 l): 100 mM Tris (12.1 g); 1.5M NaCl (87 g); 1% Tween 20 (10 g), adjusted to pH 8. I Enzyme Inhibition In Vitro: • Testing for blockade of the corresponding enzymic activities was carried out by means of kinetic fluorescence assays (excitation 390 nm, emission 460 nm). • Apparent Ki values were calculated from the experimentally determined IC50 values by the Cheng-Prussoff relation assuming a reversible competitive enzyme inhibition. The Km values of the substrates used under the assay conditions indicated above were: 90 μM (Z-Phe-Arg-AMC, cathepsin B), 10 μM (Z-Gly-Pro-Arg-AMC, cathepsin K), 2 μM (Z-Phe-Arg-AMC, cathepsin L), and 30 μM (Z-Val-Val-Arg-AMC, cathepsin S). • The indicated Ki values are averages of the inhibition constants calculated on the basis of 2 to 4 independent dose-effect plots.
# (§2) The following assays were used: • 1. Calpain I: • 20 nM calpain-I—isolated from human erythrocytes (Calbiochem #208713), 100 μM Suc-Leu-Tyr-AMC (Bachem #1-1355) as substrate in buffer with 62 mM imidazole, 0.3 mM CaCl2, 0.10% CHAPS, 0.05% BSA, 1 mM DTT at pH 7.3 and room temperature. • 2. Cathepsin B: • 0.25 nM cathepsin B—isolated from human liver (Calbiochem #219362), 100 μM Z-Phe-Arg-AMC (Bachem #I-1160) as substrate 50 mM MES, 2 mM EDTA, 0.05% Brij 35, 2.5 mM L-cysteine, pH 6.0, room temperature. • 3. Cathepsin K: • 3 nM cathepsin K—activated from recombinant human procathepsin K from E. coli (Calbiochem #342001), 10 μM Z-Gly-Pro-Arg-AMC (Biomol #P-142) as substrate in 50 mM MES, 2 mM EDTA, 0.05% Brij 35, 2.5 mM L-cysteine, pH 6.0, room temperature. • 4. Cathepsin L: • 1 nM cathepsin L—isolated from human liver (Calbiochem #219402), 2 μM Z-Phe-Arg-AMC (Bachem #1-1160) as substrate in 50 mM MES, 2 mM EDTA, 0.05% Brij 35, 2.5 mM L-cysteine, pH 6.0, room temperature. • 5. Cathepsin S: • 0.5 nM recombinant human cathepsin S from E. coli (Calbiochem #219343), 20 μM Z-Val-Val-Arg-AMC (Bachem #1-1540) as substrate in 50 mM MES, 2 mM EDTA, 0.05% Brij 35, 2.5 mM L-cysteine, pH 6.0, room temperature. • The results of the in vitro determination are indicated in Table 1. The following abbreviations are used in Table 1: • The “Calpain activity” column, ++ stands for a calpain Ki (Ki(calpain)) of ≦40 nM and + means: 40 nM<Ki(Calpain)≦100 nM. • The “Sel. cat. B” column indicates the Ki(cathepsin B)/Ki(calpain) ratio. In this connection, ++ means a Ki(cathepsin B)/Ki(calpain) ratio of ≧30 and + means 10≦Ki(cathepsin B)/Ki(calpain)<30. • The “Sel. cat. K” column indicates the Ki(cathepsin K)/Ki(calpain) ratio. In this connection, ++ means a Ki(cathepsin K)/Ki(calpain) ratio of ≧30 and + means 10≦Ki(cathepsin K)/Ki(calpain)<30. • The “Sel. cat. L” column indicates the Ki(cathepsin L)/Ki(calpain) ratio. In this connection, ++ means a Ki(cathepsin L)/Ki(calpain) ratio of ≧50 and + means 30≦Ki(cathepsin L)/Ki(calpain)<50. • The “Sel. cat. S” column indicates the Ki(cathepsin S)/Ki(calpain) ratio. In this connection, ++ means a Ki(cathepsin S)/Ki(calpain) ratio of ≧100 and + means 50≦Ki(cathepsin S)/Ki(calpain)<100.
# [2] = molecular target: T2, calpain-I isolated from human erythrocytes (Homo sapiens, UniProt P07384); test: Calpain I kinetic fluorescence enzyme inhibition assay; settings: apparent Ki from IC50 by Cheng-Prussoff; average of 2 to 4 dose-effect plots
# T2 construct: calpain-I—isolated from human erythrocytes; purchased Calbiochem 208713; host or cells: human erythrocytes (tissue isolate)
# T2 sequence (P07384 1-714): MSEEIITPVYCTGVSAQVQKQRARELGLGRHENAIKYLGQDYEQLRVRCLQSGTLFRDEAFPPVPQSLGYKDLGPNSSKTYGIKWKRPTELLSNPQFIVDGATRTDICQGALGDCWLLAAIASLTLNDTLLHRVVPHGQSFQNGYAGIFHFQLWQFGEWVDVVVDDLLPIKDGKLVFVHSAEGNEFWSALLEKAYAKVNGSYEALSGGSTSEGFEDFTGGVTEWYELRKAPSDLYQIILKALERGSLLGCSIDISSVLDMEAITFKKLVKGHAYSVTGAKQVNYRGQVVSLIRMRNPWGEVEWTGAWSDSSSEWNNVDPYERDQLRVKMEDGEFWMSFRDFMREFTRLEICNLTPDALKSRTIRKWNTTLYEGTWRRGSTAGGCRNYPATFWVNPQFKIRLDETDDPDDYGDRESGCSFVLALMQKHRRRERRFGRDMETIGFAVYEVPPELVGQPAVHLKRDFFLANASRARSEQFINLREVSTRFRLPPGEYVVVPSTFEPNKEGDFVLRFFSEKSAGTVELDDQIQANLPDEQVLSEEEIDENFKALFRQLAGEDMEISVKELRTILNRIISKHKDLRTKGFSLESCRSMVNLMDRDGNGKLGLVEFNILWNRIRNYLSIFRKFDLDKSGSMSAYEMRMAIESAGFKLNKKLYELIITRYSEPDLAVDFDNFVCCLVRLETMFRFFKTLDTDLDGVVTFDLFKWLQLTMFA
# T2 sequence (P04632 1-268 partner): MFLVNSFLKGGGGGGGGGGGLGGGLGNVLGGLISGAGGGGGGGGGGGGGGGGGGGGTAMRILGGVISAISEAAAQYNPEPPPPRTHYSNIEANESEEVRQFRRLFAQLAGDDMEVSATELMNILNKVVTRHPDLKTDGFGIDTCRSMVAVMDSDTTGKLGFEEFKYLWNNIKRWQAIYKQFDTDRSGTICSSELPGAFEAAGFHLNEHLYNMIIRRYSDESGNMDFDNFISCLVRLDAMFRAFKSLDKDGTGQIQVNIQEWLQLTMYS
# Protocol: as §1, §2
# [3] = molecular target: T3, recombinant human cathepsin S (Homo sapiens, UniProt P25774); test: Cathepsin S kinetic fluorescence enzyme inhibition assay; settings: selectivity ratio versus calpain I
# T3 construct: purchased Calbiochem 219343; host or cells: E. coli
# T3 sequence (P25774 115-331): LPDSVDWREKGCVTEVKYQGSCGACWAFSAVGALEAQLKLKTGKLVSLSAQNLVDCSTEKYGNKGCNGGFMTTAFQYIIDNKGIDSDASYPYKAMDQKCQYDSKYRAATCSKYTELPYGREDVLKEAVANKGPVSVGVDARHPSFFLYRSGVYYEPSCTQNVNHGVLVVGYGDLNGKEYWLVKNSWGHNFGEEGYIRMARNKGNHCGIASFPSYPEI
# Protocol: as §1, §2
SMILES,Sel cat. L (Ki(cathepsin L)/Ki(calpain) ratio) [1],Ki [2],Sel cat. S (Ki(cathepsin S)/Ki(calpain) ratio) [3]
"NC(=O)C(=O)C(Cc1ccccc1)NC(=O)c1cccnc1-n1cnc(-c2ccc(Cl)cc2)c1 (centres unmarked) [Example 9, N-(3-Amino-1-benzyl-2,3-dioxopropyl)-2-[4-(4-chlorophenyl)-1H-imidazol-1-yl]nicotinamide]",+ (30≦Ki(cathepsin L)/Ki(calpain)<50),≤ 40 nM,++ (Ki(cathepsin S)/Ki(calpain) ratio of ≧100)
"COc1ccc(-c2cn(-c3ncccc3C(=O)NC(Cc3ccccc3)C(=O)C(N)=O)cn2)cc1 (centres unmarked) [Example 13, N-(3-Amino-1-benzyl-2,3-dioxopropyl)-2-[4-(4-methoxyphenyl)-1H-imidazol-1-yl]nicotinamide]",++ (Ki(cathepsin L)/Ki(calpain) ratio of ≧50),40 to 100 nM,+ (50≦Ki(cathepsin S)/Ki(calpain)<100)
"CCCCC(NC(=O)c1cccnc1-n1cnc(-c2ccc(N3CCOCC3)cc2)c1)C(=O)C(N)=O.Cl (centres unmarked) [Example 15, N-{1-[Amino(oxo)acetyl]pentyl}-2-[4-(4-morpholin-4-ylphenyl)-1H-imidazol-1-yl]nicotinamide hydrochloride]",++ (Ki(cathepsin L)/Ki(calpain) ratio of ≧50),≤ 40 nM,+ (50≦Ki(cathepsin S)/Ki(calpain)<100)
"CCCCC(NC(=O)c1cccnc1-n1cnc(-c2ccc(C(F)(F)F)cc2)c1)C(=O)C(N)=O.Cl (centres unmarked) [Example 17, N-{1-[Amino(oxo)acetyl]pentyl}-2-{4-[4-(trifluoromethyl)phenyl]-1H-imidazol-1-yl}nicotinamide hydrochloride]",++ (Ki(cathepsin L)/Ki(calpain) ratio of ≧50),≤ 40 nM,+ (50≦Ki(cathepsin S)/Ki(calpain)<100)
"Cl.NC(=O)C(=O)C(Cc1ccccc1)NC(=O)c1cccnc1-n1cnc(-c2ccc(C(F)(F)F)cc2)c1 (centres unmarked) [Example 18, N-(3-Amino-1-benzyl-2,3-dioxopropyl)-2-{4-[4-(trifluoromethyl)phenyl]-1H-imidazol-1-yl}nicotinamide hydrochloride]",+ (30≦Ki(cathepsin L)/Ki(calpain)<50),≤ 40 nM,++ (Ki(cathepsin S)/Ki(calpain) ratio of ≧100)
"CCCCC(NC(=O)c1cc(Cl)cnc1-n1cnc(-c2ccccc2)c1)C(=O)C(N)=O.Cl (centres unmarked) [Example 24, N-{1-[Amino(oxo)acetyl]pentyl}-5-chloro-2-(4-phenyl-1H-imidazol-1-yl)nicotinamide hydrochloride]",+ (30≦Ki(cathepsin L)/Ki(calpain)<50),≤ 40 nM,
"NC(=O)C(=O)C(Cc1ccccc1)NC(=O)c1cccnc1-n1ccc(-c2ccc(Cl)cc2)n1 (centres unmarked) [Example 39, N-(3-Amino-1-benzyl-2,3-dioxopropyl)-2-[3-(4-chlorophenyl)-1H-pyrazol-1-yl]nicotinamide]",++ (Ki(cathepsin L)/Ki(calpain) ratio of ≧50),40 to 100 nM,++ (Ki(cathepsin S)/Ki(calpain) ratio of ≧100)
"CCCCC(NC(=O)c1cccnc1-n1ccc(-c2ccc(OC)cc2)n1)C(=O)C(N)=O (centres unmarked) [Example 49, N-{1-[Amino(oxo)acetyl]pentyl}-2-[3-(4-methoxyphenyl)-1H-pyrazol-1-yl]nicotinamide]",+ (30≦Ki(cathepsin L)/Ki(calpain)<50),40 to 100 nM,++ (Ki(cathepsin S)/Ki(calpain) ratio of ≧100)
"CCCCC(NC(=O)c1cccnc1-n1ccc(-c2cccc(N3CCOCC3)c2)n1)C(=O)C(N)=O (centres unmarked) [Example 59, N-{1-[Amino(oxo)acetyl]pentyl}-2-[3-(3-morpholin-4-ylphenyl)-1H-pyrazol-1-yl]nicotinamide]",++ (Ki(cathepsin L)/Ki(calpain) ratio of ≧50),≤ 40 nM,+ (50≦Ki(cathepsin S)/Ki(calpain)<100)
"Cc1cn(-c2ncccc2C(=O)NC(Cc2ccccc2)C(=O)C(N)=O)nc1-c1ccccc1 (centres unmarked) [Example 86, N-[3-Amino-2,3-dioxo-1-(phenylmethyl)propyl]-2-(4-methyl-3-phenyl-1H-pyrazol-1-yl)pyridine-3-carboxamide]",++ (Ki(cathepsin L)/Ki(calpain) ratio of ≧50),≤ 40 nM,
"COCc1cn(-c2ncccc2C(=O)NC(Cc2ccccc2)C(=O)C(N)=O)nc1-c1ccc(F)cc1 (centres unmarked) [Example 170, N-[3-Amino-2,3-dioxo-1-(phenylmethyl)propyl]-2-{3-(4-fluorophenyl)-4-[(methyloxy)methyl]-1H-pyrazol-1-yl}pyridine-3-carboxamide]",+ (30≦Ki(cathepsin L)/Ki(calpain)<50),40 to 100 nM,
"NC(=O)C(=O)C(Cc1ccccc1)NC(=O)c1cccnc1-n1cc(COc2ccccc2)c(-c2ccc(F)cc2)n1 (centres unmarked) [Example 179, N-[3-Amino-2,3-dioxo-1-(phenylmethyl)propyl]-2-{3-(4-fluorophenyl)-4-[(phenyloxy)methyl]-1H-pyrazol-1-yl}pyridine-3-carboxamide]",+ (30≦Ki(cathepsin L)/Ki(calpain)<50),,++ (Ki(cathepsin S)/Ki(calpain) ratio of ≧100)
